Test results: patent US20060281719A1, “Oestrogen-17-sulphamates as inhibitors of steroid sulphatase” (priority 2000, published 2006)

Columns and labels:
[1] = biological target: T1, oestrone sulphatase (E1-STS) (Homo sapiens, UniProt P08842); assay: Inhibition of steroid sulphatase activity in placental microsomes; assay type: biochemical; set-up: from tissue; host or cells: human term placenta (microsomal preparation)
T1 sequence (P08842 22-583): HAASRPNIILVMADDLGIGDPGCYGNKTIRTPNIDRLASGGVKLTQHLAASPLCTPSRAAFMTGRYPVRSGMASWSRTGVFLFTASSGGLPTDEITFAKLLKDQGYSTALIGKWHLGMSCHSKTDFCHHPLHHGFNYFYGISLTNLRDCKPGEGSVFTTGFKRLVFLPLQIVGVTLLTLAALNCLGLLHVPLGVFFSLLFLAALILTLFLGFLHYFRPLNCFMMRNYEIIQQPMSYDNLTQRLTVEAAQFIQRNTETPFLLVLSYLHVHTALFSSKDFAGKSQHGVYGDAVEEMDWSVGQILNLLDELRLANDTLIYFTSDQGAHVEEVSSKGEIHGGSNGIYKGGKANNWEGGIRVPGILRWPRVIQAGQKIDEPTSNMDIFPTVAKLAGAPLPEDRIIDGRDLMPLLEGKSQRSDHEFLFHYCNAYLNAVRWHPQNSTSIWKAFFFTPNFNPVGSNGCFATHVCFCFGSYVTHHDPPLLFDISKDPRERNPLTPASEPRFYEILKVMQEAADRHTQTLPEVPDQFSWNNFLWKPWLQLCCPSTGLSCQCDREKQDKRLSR
Protocol: Inhibition of Steroid Sulphatase Activity in Placental Microsomes
Sulphatase-positive human placenta from normal term pregnancies are thoroughly minced with scissors and washed once with cold phosphate buffer (pH 7.4, 50 mM) then re-suspended in cold phosphate buffer (5 ml/g tissue). Homogenisation is accomplished with an Ultra-Turrax homogeniser, using three 10 second bursts separated by 2 minute cooling periods in ice. Nuclei and cell debris are removed by centrifuging (4° C.) at 2000 g for 30 minutes and portions (2 ml) of the supernatant are stored at 20° C.
Incubations (1 ml) are carried out using a protein concentration of 100 mg/ml, substrate concentration of 20 mM [6,7-3H]oestrone-3-sulphate (specific activity 60 Ci/mmol from New England Nuclear, Boston, Mass., U.S.A.) and an incubation time of 20 minutes at 37° C. If necessary eight concentrations of compounds are employed: 0 (i.e. control); 0.05 mM; 0.1 mM; 0.2 mM; 0.4 mM; 0.6 mM; 0.8 mM; 1.0 mM. After incubation each sample is cooled and the medium (1 ml) was pipetted into separate tubes containing [14C]oestrone (7×10^3 dpm) (specific activity 97 Ci/mmol from Amersham International Radiochemical Centre, Amersham, U.K.). The mixture is shaken thoroughly for 30 seconds with toluene (5 ml). […] A portion (2 ml) of the organic phase was removed, evaporated and the 3H and 14C content of the residue determined by scintillation spectrometry. The mass of oestrone-3-sulphate hydrolysed is calculated from the 3H counts obtained (corrected for the volumes of the medium and organic phase used, and for recovery of [14C]oestrone added) and the specific activity of the substrate.

[2] = biological target: T1, oestrone sulphatase (E1-STS); assay: Inhibition of steroid sulphatase (E1-STS) activity in intact MCF-7 breast cancer cells; assay type: cell-based

Structure (SMILES)	% Inhibition of E1-STS activity in placental microsomes ([1]; 10 μM) [%]	% Inhibition of E1-STS activity in placental microsomes ([1]; 25 µM) [%]	% Inhibition of E1-STS activity in placental microsomes ([1]; 50 µM) [%]	% Inhibition of E1-STS activity in placental microsomes ([1]; 100 µM) [%]	% Inhibition of E1-STS activity in MCF-7 cells ([2]; 0.1 μM) [%]	% Inhibition of E1-STS activity in MCF-7 cells ([2]; 1 μM) [%]	% Inhibition of E1-STS activity in MCF-7 cells ([2]; 10 μM) [%]
NS(=O)(=O)Oc1ccc(S(=O)(=O)c2ccc(OS(N)(=O)=O)cc2)cc1 [Compound 14, Sulphonyldiphenyl-4,4′-O,O-bis-sulphamate]	65.0 ± 1.8	85.5 ± 0.6	92.3 ± 0.3	95.4 ± 0.2	<10	50.6 ± 3.3	87.4 ± 2.7
NS(=O)(=O)Oc1ccc(Sc2ccc(OS(N)(=O)=O)cc2)cc1 [Compound 15, Thiodiphenyl-4,4′O,O-bis-sulphamate]	65.3 ± 0.9	79.4 ± 0.9	87.4 ± 0.9	91.9 ± 0.4	67.2 ± 1.1	96.6 ± 1.4	99.7 ± 0.1
NS(=O)(=O)Oc1ccc(Sc2ccc(O)cc2)cc1 [Compound 16, 4′-hydroxy-thiodiphenyl-4-O-sulphamate]	33.1 ± 1.7	49.5 ± 0.1	64.7 ± 0.9	76.8 ± 0.4	26.6 ± 4.3	83.9 ± 1.2	97.7 ± 0.4
NS(=O)(=O)Oc1ccc(Cc2ccc(OS(N)(=O)=O)cc2)cc1 [Compound 18, 4,4′-Bis-sulphamoyloxydiphenylmethane]	22.1 ± 0.6	29.4 ± 0.1	38.7 ± 4.9	53.1 ± 0.1	22.2 ± 0.1	50.01 ± 0.1	93.3 ± 0.1
NS(=O)(=O)Oc1ccc(Cc2ccc(O)cc2)cc1 [Compound 19, 4-sulphamoyloxy-4′ hydroxydiphenylmethane]	11.7 ± 2.3	17.3 ± 2.7	22.8 ± 1.4	34.3 ± 1.0	<10	39.3 ± 0.1	92.4 ± 0.1
NS(=O)(=O)Oc1ccc(C23CC4CC(C2)CC(c2ccc(OS(N)(=O)=O)cc2)(C4)C3)cc1 [Compound 20, (1,3-Adamantanediyl)diphenyl-4,4′-O,O-bis-sulphamate]	31.4 ± 1.6	41.9 ± 2.3	62.5 ± 7.5	69.0 ± 4.8	16.1 ± 4.0	32.7 ± 2.3	90.1 ± 0.7
NS(=O)(=O)Oc1ccc(C23CC4CC(CC(c5ccc(O)cc5)(C4)C2)C3)cc1 [Compound 21, 4′-hydroxy-(1,3-adamantanediyl)diphenyl-4-O-sulphamate]	<10	15.9 ± 0.9	32.5 ± 1.1	60.1 ± 3.4	<10	16.3 ± 1.5	64.1 ± 1.1
Oc1ccc(C(O)(c2ccc(O)cc2)C2CCCCC2)cc1 [Compound 24, 1-Cyclohexyl-1,1-di-(4-hydroxyphenyl)methanol]	<10	20.0 ± 1.6	33.4 ± 2.2	44.7 ± 0.4	–	–	–
NS(=O)(=O)Oc1cccc(C(=O)c2cccc(OS(N)(=O)=O)c2)c1 [Compound 28, Benzophenone-3,3′-O,O-bis-sulphamate]	51.1 ± 3.7	73.6 ± 1.9	84.1 ± 1.9	–	75.3 ± 0.8	98.4 ± 0.3	99.9 ± 0.1
NS(=O)(=O)Oc1cccc(C(=O)c2cccc(O)c2)c1 [Compound 29, 3′-hydroxybenzophenone-3-O-sulphamate]	18.8 ± 1.3	30.7 ± 3.4	43.7 ± 2.6	58.3 ± 0.1	<10	30.7 ± 5.6	87.2 ± 1.8
